row,Structure (SMILES),melting point [°C]
1,COC(=O)c1ccc2c(c1)c1cc(-c3ccc(C=O)cc3)c(=O)n(C)c1n2C,230
2,COc1ccc(CCNC(C)(C)CO)cc1,114 to 115
3,O=C(NCCN1CCC(Oc2ccc(F)cc2Cl)CC1)c1ccc(-n2cccn2)nc1,109 to 110
4,CCOCCOCCOCCOc1ccc(OCCCCCCCCCCCCOc2ccccc2)cc1N(CC(=O)O)CC(=O)O,58 to 61
5,O=c1[nH]ccc2c1C(c1cccc(Cl)c1)N=C(c1ccccc1)N2 (stereo not given),172 to 173
6,"COc1cc2c(cc1O)CC1c3c(cc(OC)c(O)c3-2)CCN1CC1CC1 (single isomer, unassigned; (+))",80 to 84
7,CCN(CC)C(=O)c1c(C(=O)c2cc3cnccc3n2S(=O)(=O)c2ccccc2)ccnc1OC,150
8,CCOC(=O)c1c(CN2C(=O)CN(C)C2=O)nc2sc3c(c2c1-c1ccc(OC)c(OC)c1)CCN(C(=O)c1ccccc1)C3,185 to 187
9,CC12C=CCC1C1CCC3CCCCC3C1CC2 (stereo not given),165 to 166
10,O=C1CCC(N2Cc3c(OCc4ccc5ncccc5c4)cccc3C2=O)C(=O)N1 (stereo not given),267 to 269
11,COc1cccc2c1OCc1nc(C(=O)O)cn1-2,275 to 277
12,CC(C)(S)CNC(=O)CCC(=O)O,86 to 87
13,COc1ccc(-c2cc(C#N)nnc2-c2ccc(OC)cc2)cc1,113 to 115
14,Clc1ccc2c(c1)c(-c1ccccc1)nc1nccn12,270 to 272
15,Nc1c(C(=O)O)cc(Br)nc1Br,251 to 253
16,COCC(=O)N[C@@H]1CCOc2ccccc21,109 to 112
17,CCOC(=O)CC(CC(=O)OCC)N1CCC(Nc2ncc3ncnc(Nc4cccc(Br)c4)c3n2)CC1,132
18,O=c1[nH]c2cc(Cl)ccc2c(O)c1-c1cccc(/C=C/c2ccccc2)c1,320 to 324
19,Clc1cccc(/C=C/C2=CCN(Cc3c[nH]c4ncccc34)CC2)c1,208 to 210
20,O=S(=O)(Nc1ccccc1O)c1ccc(Cl)cc1,82
21,CCC(C(=O)OCC[Si](C)(C)C)c1ccccc1CCC(=O)c1cccc(C=Cc2ccc3ccc(Cl)cc3n2)c1 (stereo not given),109 to 111
22,COCCN1CCN(c2c(F)cc(N3C[C@H](CNC(C)=O)OC3=O)cc2F)CC1,162 to 164
23,O=C1CCCN(C(=O)c2ccc(Cl)cc2)C(=O)CCc2cc(Cl)ccc21,141 to 143
24,CNCC(O)C1=CNC2C=CC=CC12 (stereo not given),117 to 120
25,COc1ccc2c(n1)c(CCNC(C)=O)c1n2CCCO1,92 to 93

row,Structure (SMILES),melting point [°C]
1,CC(C)(C)OC(=O)NC(C(=O)NOC(c1ccccc1)(c1ccccc1)c1ccccc1)C1(O)CCSC1 (stereo not given),220 to 225
2,[O-][N+]1=C(c2ccccc2F)c2cc(Cl)ccc2NC(C(=NO)N2CCOCC2)C1 (stereo not given),184 to 186
3,C#CCn1c(=O)n(CC=C)c(=O)n(-c2cc(N3C(=O)C4=C(CCCC4)C3=O)c(F)cc2Cl)c1=O,107 to 114
4,Cc1cc(C2=NOC(c3cc(Cl)cc(Cl)c3)(C(F)(F)F)C2)ccc1C(=O)NCO (stereo not given),69 to 73.5
5,Cc1cc(-n2ccnc2)c2cccc(OCc3c(Cl)ccc(S(=O)(=O)N4CCC[C@H]4C(=O)NCCO)c3Cl)c2n1,140
6,COC(=O)CCCC#Cc1cc(Cl)ccc1NS(=O)(=O)c1ccc2c(c1)OCCN2C,131 to 133
7,CN(C)C(=S)Oc1ccc(CC#N)cc1,120 to 124
8,CCCOc1ccc(/C=C/C(=O)O)cc1-c1nc2c(c(C)nn2CCC)c(=O)[nH]1,231 to 232
9,COc1nc(Cl)cnc1N(C(=O)OCC(C)C)S(=O)(=O)c1ccccc1-c1ccc(O)cc1,175 to 177
10,Nc1nc(Nc2cccnc2)nn1-c1ccccn1,256
11,COc1nc(C)c(CC2CC2)c(C(O)c2cc(Cl)cc(C#N)c2)c1C(C)C (stereo not given),237 to 238
12,CCCCCCCNC(=O)Nc1ccccc1C(=O)N1CCCN(C(c2ccccc2)c2ccccc2)CC1,125
13,O=C(O)c1ccc(-c2ccc(OCCCCO)c(-c3ccc(N4CCCC4)c(C(F)(F)F)c3)c2)cc1,237
14,CC(OC(=O)C1N2C(=O)C(NC(=O)Cc3ccccc3)C2S(=O)C1(C)C)C1CC1 (stereo not given),158 to 159
15,O=C1Nc2c(F)cccc2C12COc1cc3c(cc12)CCO3 (stereo not given),> 250
16,O=C(c1ccccc1)c1nc(Cl)ccc1[N+](=O)[O-],107
17,CCCC1CCC(C2(N=C=S)C=CC(CC)=CC2)CC1 (stereo not given),43
18,OCc1ccc(-c2ccc(CO)cc2)cc1,195 to 197
19,COC(=O)c1cc(OC)c(OCCCN)cc1[N+](=O)[O-],101 to 103
20,CC1(C)Oc2cc3nonc3cc2C(N2CCC(Br)CC2=O)C1O (stereo not given),250 to 253
21,Cc1cc(Cl)ccc1N=CN(C)SSN(C)C=Nc1ccc(Cl)cc1C,56 to 57
22,CCCCC(CC)COc1ccc(C=C2C(=O)C3CCN2CC3)cc1 (stereo not given),37
23,CCOC(=O)c1ccc2c(c1)c(-c1ccccc1)nn2CCC#N,99 to 102
24,CC(C)N=C(NC(C)C)ON1C(C)(C)CC(O)CC1(C)C,118 to 123
25,COc1cc(C(=O)c2nc(C(N)=O)c3ccccn23)ccc1N,241

row,Structure (SMILES),melting point [°C]
1,N#Cc1cnc2sc(-c3ccccc3)cc2c1Nc1ccc2[nH]ccc2c1,> 245
2,N#Cc1cnc2cc(Br)sc2c1Nc1ccc(Oc2ccccc2)cc1,248 to 250
3,CN(C)Cc1ccc(CSCCNC(=C[N+](=O)[O-])NCCCCCCCCCCCCNC(=C[N+](=O)[O-])NCCSCc2ccc(CN(C)C)o2)o1,74 to 76
4,CCOC(=O)c1ccc(NC(=O)NC2CN(C3CCCCC3)c3ccccc3N(CC(=O)c3cccs3)C2=O)cc1 (stereo not given),219 to 220
5,CC1(C)C(=O)Nc2ccc(C#N)cc2N(CC2CC2)C1=O,234 to 236
6,COc1ccc2c(c1)N(CCNC(C)=O)C(c1ccccc1)CO2 (stereo not given),125 to 126
7,CC(C)=CCc1c(C)cc(O)cc1C,64 to 65
8,FC(F)(F)c1ccc(OC2CCCCO2)c(Sc2ccccc2)c1 (stereo not given),72 to 73
9,O=C1CCC(c2ccccc2)(c2ccccc2)C2CN(C(Cc3ccccc3)=NCc3cccc(F)c3)CC12 (stereo not given),156
10,Nc1ccc(C2=NNC(=O)Cc3cc4c(cc32)OCO4)cc1Cl,256 to 258
11,COCc1n[nH]c2c1c(=O)n(-c1ccccc1)c1ncccc21,263 to 265
12,COc1ccc(NC(=O)N(C)Cc2cccc3c2C(=O)N(C2CCC(=O)NC2=O)C3=O)cc1 (stereo not given),243 to 245
13,CCCCS(=O)(=O)Nc1ccc(Oc2ccc3cccnc3c2)cc1,168
14,COc1cccc(-c2cc(F)c3c(c2)CC(CN)O3)c1 (stereo not given),> 250
15,CNC(=O)NC(=O)C(CC1CCC(=O)C1)c1ccc(Cl)c(Cl)c1 (stereo not given),70 to 74
16,CC(=O)SCCc1cn2cccnc2n1,122 to 124
17,CC(C)(C)OC(=O)[C@@H]1CS[C@H](c2cccc(O)c2)N1C(=O)CNC(=O)Nc1cccc(C(=O)O)c1,150
18,Cc1cc(C(=O)O)cc2c3ccccc3n(Cc3ccccc3)c12,> 240
19,Cc1c2c(c(C(C)(O)c3ccc(C(C)C)cc3)c(C)c1NC(=O)OC(C)(C)C)OCC2 (stereo not given),185 to 186
20,Nc1cc(Br)cc2cccnc12,142 to 145
21,CCC1Cn2c(ncc(C(=O)O)c2=O)-c2ccccc21 (stereo not given),167 to 169
22,NCc1cccc(N)c1,40 to 43
23,CS(=O)(=O)c1ccc(-c2cnn(-c3ccc(F)cc3)c(=O)c2N2CCCCC2)cc1,80 to 100
24,c1ccc(C(c2ccccc2)N2C(=NCCCn3ccnc3)c3cccc4cccc2c34)cc1,142 to 143
25,COc1ccc2c(c1)c(CC(=O)OCc1cccnc1)c(C)n2C(=O)c1ccc(Cl)cc1,116 to 118

row,Structure (SMILES),melting point [°C]
1,CC(=S)NC[C@H]1CN(c2ccc3c(c2)CCCc2cn[nH]c2-3)C(=O)O1,190 to 195
2,COC(=O)CSc1c(C)cc(C(O)(C(F)(F)F)C(F)(F)F)cc1C,99 to 101
3,CC(=O)OCCSCCOc1ccc(CCC(=O)O)cc1,48 to 49
4,CC(C)(C)OC(=O)NC1CCCC1CO (stereo not given),107 to 108
5,CCOC(=O)CCc1cc(CCC(N)=O)cc(Cc2ccc(F)cc2)c1,69 to 70
6,Cc1c(OCCCl)cccc1[N+](=O)[O-],58 to 59
7,Fc1c(Cl)cccc1Br,43
8,CCC1(CC)c2cc(Br)ccc2-c2ccc(I)cc21,162 to 164
9,N#Cc1ccc(C=NNS(=O)(=O)c2ccccc2)cc1,209 to 213
10,CCOC(=O)C1=C(C)N(C)C(C)=C(C(=O)OCC)C1c1ccc(OC(C)(C)C(=O)OCC)cc1,88
11,CC(=O)OCC1OC(O)(c2ccc(Cl)cc2)C(OC(C)=O)C(OC(C)=O)C1OC(C)=O (stereo not given),124
12,Cc1c(N)c(C#N)cc(F)c1F,114 to 116
13,CCCOC(=O)c1cn(C2CC2)c2nc(N3CCC(N)C3)c(F)cc2c1=O (stereo not given),125 to 126
14,CCc1cccc2c(O)cnnc12,160 to 161
15,OCCOc1ccc2ccn(C3CCN(CCc4ccc(F)cc4)CC3)c2c1,118 to 119
16,COc1ccc2c(Cl)nccc2c1,72 to 74
17,CNC(=O)C(Cc1ccc2ccccc2c1)NC(=O)OC(C)(C)C (stereo not given),177 to 179
18,C=Cc1c(C)oc(-c2ccc(S(C)(=O)=O)cc2)c(Oc2ccc(F)cc2F)c1=O,184
19,COc1ccc(C(=O)c2ccccc2-c2ccc(C#N)cc2)cc1,121 to 123
20,Cc1cc(C)c(CON)c(C)c1,54 to 55
21,C=CCNc1nc(NCCCCC)c2scc(C)c2n1,64 to 65
22,O=S(=O)(Cc1cc(F)cc(F)c1)NC1CN(C(c2ccc(Cl)cc2)c2cccnc2)C1 (racemic),110
23,Nc1ccc2c(c1)Cc1c(-c3ccccc3)n[nH]c1-2,228 to 230
24,Cn1cnc(N2CCc3ccccc3CC2)c(C#N)c1=O,197 to 203
25,COc1ccc2[nH]ccc(=O)c2c1OCc1ccccc1,171 to 172

# From a melting point compilation (Tetko et al.; mined from patent text by program, amines drawn as free bases though some values may be those of a salt)
